# Test results taken from patent US11786543B2, “Compositions comprising decitabine and tetrahydrouridine and uses thereof” (The Board of Trustees of the University of Illinois, priority 2008, dated 2023).
# “And” between values parts separate entries of the source, which are not always exact repeats. Identical values can stand only once.
# Tests used:
# [1] = tested on: normal hematopoietic precursors; format: cell-based; conditions: DAC 0.5 μM, equimolar Ara-C, clinically relevant levels of HU; measured D6
# Protocol: Measurement was performed on D6.
# Normal CD34 cells were isolated from cord blood. […] Equimolar levels of AraC were used as positive controls. […] Twenty-four hours after DAC or AraC exposure, apoptosis was measured by flow-cytometric assessment for annexin staining. Double annexin/7-aminoactinomycin D (7AAD)-positive cells represent late apoptosis/necrosis. […] Results are expressed as a percentage of vehicle treated controls.
# (§1) AraC, a cytidine analog that terminates DNA chain synthesis, was used as a positive control for DNA damage and apoptosis induction.
# [2] = tested on: normal CD34+ hematopoietic cells; experiment: DNA damage (Fast Micromethod for DNA scission, γH2AX flow cytometry); conditions: decitabine 0.5 μM D1,3,5; Ara-C 0.5 μM D1,3,5; hydroxyurea 500 μM D1-5; measured D6
# Protocol: Measurement was performed on D6.
# Dark histogram=isotype control for flow-cytometricanalysis. Light histograms show the γH2AX staining for untreated control cells. Measurement was performed on D6.
# Normal CD34 cells were isolated from cord blood. DAC 0.005 μM was added once daily on days 1-4 and DNMT1 was quantified by Western blot on day 5. […] Twenty-four hours after DAC or AraC exposure, DNA damage was measured by flow-cytometric assessment for phosphorylation of histone H2AX (γH2AX; B) or the Fast Micromethod for DNA scission (FIG. 19C). Equimolar levels of AraC were used as positive controls. Gray histogram is the isotype control. […] Twenty-four hours after DAC or AraC exposure, apoptosis was measured by flow-cytometric assessment for annexin staining. Double annexin/7-aminoactinomycin D (7AAD)-positive cells represent late apoptosis/necrosis. […] Results are expressed as a percentage of vehicle treated controls.
# as §1
# normal CD34+ cells = experiment: Cell counts, morphology and colony formation; format: cell-based; conditions: non-DNA-damaging DNMTI-depleting decitabine; Ara-C equimolar
# Source text: The Kasumi-1 cell-line is derived from a patient with AMLI-ETO leukemia and represents a late-stage model of transformation and malignant evolution.
# baboons = experiment: Pharmacodynamic responses (HbF %, neutrophil counts) to decitabine with or without THU in baboons; format: in vivo, baboon; parameters: ANC nadir: unit not given here
# Protocol: Fetal hemoglobin expression, HbF %, pre and post treatment with the indicated dose of decitabine. […] Oral treatment was with decitabine or a slightly modified decitabine (decitabine-mesylate—Dac-m).
# Decitabine was administered at the doses indicated in two consecutive blocks of 5 days each. THU at the indicated doses was administered 60 minutes before each decitabine dose.
# [3] = Decitabine plasma pharmacokinetics in baboons (LC/MS)
# Protocol: Baboons were treated with IV decitabine 0.5 mg/kg (2 animals), SQ decitabine 0.5 mg/kg (2 animals), or oral decitabine 10 mg/kg (2 animals).
# Decitabine was administered to two baboons IV (0.5 mg/kg), SQ (0.5 mg/kg) and orally (10 mg/kg). Blood was collected at 7 time-points and plasma concentrations were determined using an LC/MS/MS method adapted from a previously published method 26.
# AUClast refers to the area under a plotted plasma concentration-time curve (not shown) at the last recorded timepoint.
# Two baboons (PA7484 and PA7470) were administered oral THU 20 mg/kg (400 mg/m^2) 60 minutes prior to oral decitabine 5 mg/kg, or decitabine alone. After a wash-out period of greater than 2 weeks, these same two animals were administered oral THU 2 mg/kg […] 60 minutes prior to oral decitabine 5 mg/kg, or oral decitabine alone. […] Decitabine levels were measured at various timepoints by LC-MS. […]
# To compare the effect of different routes of administration on the DAC concentration-time profile, plasma DAC levels were compared after IV or SC administration versus oral administration to the same animals (washout period of ≥2 weeks between drug administrations to the same animal). […] Blood was collected for up to 7 time-points after administration and plasma concentrations were determined using LC/MSMS. […]
# [4] = tested on: Reno-1 renal cell cancer xenograft; conditions: mouse, in vivo
# Protocol: In an effort to apply the proposed formulation and regimen to treat different cancer histologies, a renal cell cancer cell-line (Reno-1) was developed from a surgical sample of renal cancer and used in a xeno-transplantation experiment. […] The percentage of necrosis in each tissue section was evaluated in a blinded fashion.
# [5] = Oral 9.35 mg/kg/d, individual baboons, 9.35 mg/kg/day
# [6] = Oral 18.7 mg/kg/d, individual baboons
compound,measurement,setting,value
"Nc1ccn([C@@H]2O[C@H](CO)[C@@H](O)[C@@H]2O)c(=O)n1 [Ara-C, cytosine arabinoside]",apoptosis (annexin V-FITC and 7AAD double staining),[1],cause significant apoptosis and cell-death
same,"DNA damage (Fast Micro-method for DNA scission, γH2AX)",[2],cause significant DNA damage
same,cell counts,normal CD34+ cells,more devastating to normal cells
"CS(=O)(=O)O.Nc1ncn([C@H]2C[C@H](O)[C@@H](CO)O2)c(=O)n1 [Dac-m, decitabine-mesylate]",ANC nadir,"baboons; Oral 4.1 mg/kg/d, baboon 7001",1417
same,Post-HbF %,"baboons; Oral 4.1 mg/kg/d, baboon 7001",13.1%
same,ANC nadir,"baboons; Oral 6.7 mg/kg/d, baboon 7002",481
same,Post-HbF %,"baboons; Oral 6.7 mg/kg/d, baboon 7002",31.4%
same,ANC nadir,baboons; [5],463 and 2000
same,Post-HbF %,baboons; [5],62.3% and 40.5%
same,ANC nadir,baboons; [6],1659
same,Post-HbF %,baboons; [6],67.8%
"O=C1NC(O)CCN1[C@@H]1O[C@H](CO)[C@@H](O)[C@H]1O (some centres unmarked) [THU, Tetrahydrouridine]","DAC concentrations, THU 400 mg/m^2 versus THU 40 mg/m^2","[3]; 60 minutes before DAC 100 mg/m^2, PA7470 and PA7484",produced higher DAC concentrations
same,"DAC concentrations, THU 60 minutes before versus simultaneously or 30 minutes before DAC",[3]; in vivo,produced higher DAC concentrations
avastin: standard agent used to treat renal cancer,sensitivity of the tumor to standard agents,[4],relatively resistant
